Measurements reported in patent US9707250B2, “Hydrophobically modified antisense oligonucleotides comprising a triple alkyl chain” (INSTITUT NATIONAL DE LA SANTE ET DE LA RECHERCHE MEDICALE …, priority 2013, dated 2017).
Oligonucleotides are written 5' to 3', each unit as a sugar letter and its base; * is a phosphorothioate linkage, no mark a phosphodiester; rarer units and linkages stand in square brackets, end groups in braces. Plain capitals give the bases only. {(C18)3CCH2} = lipid of three C18 alkyl chains on a quaternary carbon, linked through CH2-O-phosphodiester; {3LON} = triple hydrocarbon-chain lipid moiety added by triple chain phosphoramidite 4; d = 2'-deoxy (DNA)

Legend:
TCTP protein = TCTP protein expression by western blot after transfection without Oligofectamine; assay type: cell-based, human; conditions: PC-3 prostatic cells; absence of Oligofectamine; 30 nM to 100 nM, in particular 100 nM; two or three days after transfection; LASO#Scr negative control
Experimental: Lipid-conjugated oligonucleotide, LASO#15 was tested on TCTP protein expression using western-blot (LASO#Scr was used as negative control).
(§1) Prostatic cell line were transfected with LASO#15 at various concentrations (from 30 nM to 100 nM), in OptiMEM® medium (Invitrogen), without serum and in the absence of Oligofectamine™ transfection reagent (Invitrogen).
(§2) Serum was added 4 hours after transfection. Two or three days after transfection, the level of TCTP protein expression and GAPDH (used as housekeeping gene) were determined by performing western blotting, and the in vitro growth inhibitory effects of LASO#15 on PC-3 cells were assessed using an MTT assay.
Western Blot analysis was performed as described previously (Rocchi et al., 2004, Cancer Res. 64:6595-602) with 1:2000 rabbit TCTP polyclonal antibody (Abcam Inc., Cambridge, UK). Loading levels were normalized using 1:5000 rabbit anti-glyceraldehyde-3-phosphate dehydrogenase polyclonal (Abcam Inc.).

PC-3 cells = test: MTT assay, in vitro growth inhibitory effects; assay type: cell-based, human; conditions: transfection in the absence of Oligofectamine
Experimental: The CR prostate cancer cell line PC-3 was purchased from the American Type Culture Collection (Rockville, Md., USA). The cells were maintained in Dulbecco's Modified Eagle's Medium (Invitrogen, Cergy Pontoise, France), supplemented with 10% fetal calf serum (FCS).
as §1, §2
The MTT assay was performed as described previously (Rocchi et al., 2004, Cancer Res. 64:6595-602).

[1] = Solubility of LONs in water; assay type: physicochemical; conditions: adenosine-containing versus thymidine LON
Experimental: At this point, the crude ^3LON-T15 and ^3LON-A15 behave quite differently. […] The LON eluted after ca. 42 min under these conditions. Fractions containing the LON were pooled and evaporated to dryness. The LON was dissolved in water and dried again two times to remove all residual traces of buffer. Yield of final ^3LON-T15 was excellent (40%).
(§3) As true surfactants, LONs can self assemble in aqueous media. […] The latter could be HPLC-purified and characterized by MS. […] Consequently, dynamic light scattering, transmission electron microscopy and SEM experiments were carried out with the solutions of one purified LON only. Aqueous samples containing LONs were studied under different conditions including pure water and aqueous suspensions of varying ionic strength and temperature (25-45° C.). All the LONs investigated, namely ^3LON-T15, yielded small spherical objects ranging from approximately 8 to 20 nm in diameter as characterized by DLS, transmission and scanning electronic microscopies (TEM and SEM). […] The micellar architecture of these assemblies can be explained based upon the molecular dimensions of 15 nucleobase-long LONs. Indeed, such molecules are flexible, with cone shape structure and dimensions compatible with the self-aggregation into spherical micelles.

[2] = Aggregation behavior of LONs in aqueous media; assay type: physicochemical
Experimental: as §3, with “Consequently, dynamic light scattering, transmission electron microscopy and SEM experiments were carried out with the solutions of one purified LON only.” left out

[3] = Size of LON aggregates by DLS, TEM and SEM; assay type: physicochemical
Experimental: Transmission Electron Microscopy (TEM). Samples were imaged by negative staining microscopy with a Hitachi H 7650 electron microscope. Samples containing LONs (concentrations and mean sizes are indicated in TEM images) were transferred to a carbon-coated copper grid for ten minutes. The sample was then dried and stained with 2.5% (W/W) of uranyl acetate in water for five minutes.
Scanning Electron Microscopy (SEM). Samples were examined at an accelerating voltage of 10 kV. Typically […] of sample containing the LON aggregates were dried spread on polished stainless steel platelets and then coated with a 6-10 nm layer of gold-palladium alloy under vacuum with a sputter Coater Balzers SCD050. Observations were made with a Philips XL30S FEG instrument.
as §3

## (C18)3CCH2—O—P(═O)(—O[−1])-O-5′-AACTTGTTTCCTGCAGGTGA-3′-OH (antisense {(C18)3CCH2}-dAdAdCdTdTdGdTdTdTdCdCdTdGdCdAdGdGdTdGdA) [LASO#15]
TCTP protein
  TCTP protein expression (western blot): specific inhibition of TCTP protein
PC-3 cells
  growth of PC-3 cells (MTT assay): inhibiting the growth of the PC-3 cells

## ^3LON-A15: Triple chain polyA 15mer; dA15 (SEQ ID NO: 32) coupled at its 5′ end with triple chain phosphoramidite 4 (DNA AAAAAAAAAAAAAAA; DNA, 5' {3LON}, backbone not given here)
[1]
  solubility in water (relative): less soluble in water than their thymidine counterparts
[2]; crude LON
  aggregation after cleavage and deprotection: immediate and irreversible aggregation

## ^3LON-T15: Triple chain polyT 15mer; dT15 (SEQ ID NO: 33) coupled at its 5′ end with triple chain phosphoramidite 4
[2]; after storage at −20° C.
  aggregation on storage: slow aggregation tendency
[3]; 25-45° C. range
  effect of temperature on aggregate size: poorly affected by temperature
[3]; DLS in water
  sensitivity of aggregate size to ionic strength: poorly sensitive to ionic strength
[3]; DLS, hybridization of the complementary dA15, not observed with ncDNA
  change of micelle core on hybridization: contraction of the core micelle is observed
